Values quoted from earlier work in patent US12414981B2, “JNK inhibitors for use in treating and preventing neurodegenerative disorders” (Northwestern University, priority 2021, dated 2025).

Conditions: in vivo

In the case of `Oc1c2ccccc2c2c3c(cccc13)N=N2` [SP600125, anthra [1,9]pyrazol-6 (2H)-one], the “crosses the blood-brain barrier” value is given as “crosses the blood-brain barrier”.
